Measurements: US20250313828A1, “SYNTHETIC GENETIC PLATFORM IN EUKARYOTE CELLS AND METHODS OF USE” (University of Washington, priority 2022, published 2025)
“Also recorded” adds a separate entry of the source.

Legend:
H1 sequence of TBL1 = target: T1, H1 sequence of TBL1 (Homo sapiens, UniProt O60907); experiment: Small molecule testing on the yeast H1 platform, TBL1 helix fused to IAA3; type: cell-based; settings: yeast cultured 4 hours with compound, flow cytometry, absence of Beta-catenin
T1 construct: expressed in transfected cells; host or cells: Saccharomyces cerevisiae reporter strain (AFB2, ARF19 and auxin promoter::Venus integrated at URA3)
Experimental: (§1) Yeast were grown overnight from a dilution of […] at 30° C. and 250 rpm. When cell density reached […] either control (DMSO) or small molecule BC2059 were added at the indicated concentration, and cultured for 4 hours before being measured for fluorescence by flow cytometry. Each data point represents three independent time-course flow cytometry experiments of the helices indicated, all fused to IAA3. Every point represents the average fluorescence of at least 10,000 individually measured yeast cells (a.u.: arbitrary units). Error bars are standard error.

mutant TBL1 H1 sequence = experiment: Cancer variant detection using the yeast H1 platform; type: cell-based, Homo sapiens (Human); settings: 500 nM, 4 hours, compared with wild type TBL1 H1
Experimental: as §1, with “of the TBL1 or control helices indicated,” for “of the helices indicated,”
Yeast carrying either the wild type or mutant TBL1 H1 sequence were cultured in the presence or absence of 500 nM Tegatrabetan and fluorescence measured by flow cytometry. […] This approach is particularly relevant to personalized medicine for a given mutation in a patient.

TPL sequence = target: T2, TPL sequence (Arabidopsis thaliana, UniProt Q94AI7); experiment: Small molecule testing on the yeast H1 platform, TPL helix fused to IAA3; type: cell-based; settings: yeast cultured 4 hours with compound, flow cytometry
T2 construct: a construct carrying only the first 18 amino acids of Helix 1 of the LisH domain fused to IAA3; expressed in transfected cells; host or cells: Saccharomyces cerevisiae reporter strain (AFB2, ARF19 and auxin promoter::Venus integrated at URA3)
Experimental: as §1

[1] = test system: synthetic auxin reporter DR5-Venus; experiment: H1 repression assay, transient transformation in tobacco leaves; type: in vivo, Nicotiana benthamiana; settings: transient expression in tobacco, IAA3 EAR motif mutated to AxAxA
Experimental: Reporter activation was measured in four separate leaf injections (biological replicates) in two days of injection (boxplots illustrated in FIG. 5C are pooled data from one day, with two replicates divided on right and left panels). Each leaf was excised at 8 locations and measured for Venus fluorescence using a plate scanner. pDR5:Venus: the synthetic DR5 auxin promoter (Ulmasov et al., Plant Cell 9, 1963-1971, 1997) driving Venus; ARF19: […]; […] Plant growth. […] Strain density was normalized to an OD600 of 1 for each strain in the final mixture of strains before injection into tobacco leaves. Leaves were removed, and eight different regions were excised using a hole punch, placed into a 96-well microtiter plate with 100 μl of water. Each leaf punch was scanned in a 4×4 grid for yellow and red fluorescence using a plate scanner (Tecan Spark, Tecan Trading AG, Switzerland). Fluorescence data was quantified and plotted in R (ggplots2).

[2] = type: cell-based, Saccharomyces cerevisiae
Experimental: Western Blot. […] Cells were harvested by centrifugation. Cells were lysed by vortexing for 5 min in the presence of 200 μl of 0.5-mm diameter acid washed glass beads and 200 μl SUMEB buffer (1% SDS, 8 M urea, 10 mM MOPS pH 6.8, 10 mM EDTA, 0.01% bromophenol blue, 1 mM PMSF) per one OD unit of original culture. Lysates were then incubated at 65° C. for 10 min and cleared by centrifugation prior to electrophoresis and blotting. Antibodies: anti-HA-HRP (REF-12013819001, Clone 3F10, Roche/Millipore Sigma, St. Louis, MO), anti-PGK1 (ab113687, AbCam). Protein concentrations were quantified using ImageJ, with PGK1 protein measured in each strain to normalize protein concentrations across strains. To compare protein concentrations to […]1, these were then normalized to TPL concentration using this equation: ([[…]1 normalized protein concentrations were plotted on a Log 2 scale.

auxin promoter::Venus = experiment: Repression activity of H1 helices fused to IAA3 in the AtARCSc, fluorescence flow cytometry; type: cell-based, Saccharomyces cerevisiae; settings: for Repression activity of H1-HA-IAA3 library constructs: H1-HA-IAA3 expressed off a plasmid, static ARC components integrated at URA3

Compound	Protein accumulation / stability [2]	Repression activity of H1-HA-IAA3 library constructs (auxin promoter::Venus)	also measured
C[C@@H]1C[C@H](C)CN(S(=O)(=O)c2ccc3c(c2)C(=NO)c2cc(S(=O)(=O)N4C[C@H](C)C[C@H](C)C4)ccc2C3=NO)C1 [BC2059, Tegavivint]			Effect on TBL1's repressive activity on transcription (H1 sequence of TBL1): dose-dependent interference; Responsiveness of TBL1 H1 cancer variant mutations to the compound (mutant TBL1 H1 sequence): Certain cancer mutants were less sensitive to treatment; Effect on TPL H1 repression (TPL sequence): unaffected
PfGID8: H1 tested in tobacco; perhaps H1-BCR36DRAFT, KDLNKLIMNYLVI, SEQ ID NO: 36 (listed as Chytriomyces confervae)			Repression of reporter in planta [1]: less
R854Q: cancer variant H1 KELLLLIQNHLIS, SEQ ID NO: 86	slightly increasing protein accumulation	increase	
SpHIF2: H1 sequence NQVNYIIWRYLKE, SEQ ID NO: 17 (Schizosaccharomyces pombe)	very poor protein stability	not detected	
H856Y: cancer variant H1 KELLLLIRNYLIS, SEQ ID NO: 87	not significantly affected	not significantly affected	
HsLIS1: H1 sequence DELNRAIADYLRS, SEQ ID NO: 63 (listed as Homo sapiens)	well expressed	repressive	
HsTBL1X Y64C: cancer variant H1 DEVNFLVCRYLQE, SEQ ID NO: 81	highest accumulation	strongest repressor	
R6V: TPL H1 mutant VELVFLILQFLDE, SEQ ID NO: 106	negative effect on protein accumulation	loss of repression	
1853M: cancer variant H1 KELLLLMRNHLIS, SEQ ID NO: 85	slightly increasing protein accumulation	slightly decrease	
F10A: TPL H1 mutant RELVALILQFLDE, SEQ ID NO: 121			Repression of reporter in planta [1]: improvements in repression in tobacco compared to wild type; Time course flow cytometry following auxin addition (de-repression) (auxin promoter::Venus; AtARCSc in yeast, auxin (IAA-10 μM) added): strengthened the durability of repression H1, converting it into an auxin-insensitive repression domain; also recorded: loss of auxin sensitivity
R6E: TPL H1 mutant EELVFLILQFLDE, SEQ ID NO: 91	negative effect on protein accumulation	loss of repression	
DmGID8: H1 tested in tobacco; probably H1-DmDMEI, ADLNRLVMNYLVT, SEQ ID NO: 38 (listed as Drosophila sechellia)			Repression of reporter in planta [1]: not functional
R65Q: cancer variant H1 DEVNFLVYQYLQE, SEQ ID NO: 82	reductions in protein abundance	higher repression rates	
R14W: cancer variant H1 DEVNFLVYWYLQE, SEQ ID NO: 83	reductions in protein abundance	higher repression rates	
R6N: TPL H1 mutant NELVFLILQFLDE, SEQ ID NO: 94	negative effect on protein accumulation	loss of repression	
L851F: cancer variant H1 KELLFLIRNHLIS, SEQ ID NO: 84	dramatically reduces	dramatically reduces	
